In test [1] the test system is Bifidobacteria sp. (ten strains of Table 2). Briefly: Growth (OD 600 nm) and pH of bacterial strains in ZMB1 with oligosaccharide as sole carbon source. Type of test: cell-based, Bifidobacterium longum, Bifidobacterium infantis. The conditions noted are these: for utilization as a primary carbon source by ten different Bifidobacteria: concentrations indicated in FIGS. 4 and 5; for numbers of bifidobacteria: in vitro fermentation, vs control; for prebiotic effects on Bifidobacteria strains: sialyllactose alone, FIG. 5.

Test [2] deals with Escherichia coli W3110. The description is as above. The format is cell-based. The conditions noted are these: 48 h, FIG. 4.
The test system of test [3] is Clostridium perfringens ATCC 13124. Type of test: cell-based. The conditions noted are these: 48 h, sole carbon source, FIG. 4.

As to `CC(=O)N[C@H]1[C@H]([C@H](O)[C@H](O)CO)O[C@@](O[C@H]2[C@@H](O)[C@@H](CO)O[C@@H](O[C@H]3[C@H](O)[C@@H](O)C(O)O[C@@H]3CO)[C@@H]2O)(C(=O)O)C[C@@H]1O` (some centres unmarked) [3′-SL, 3′-sialyllactose], in test [1], the “utilization as a primary carbon source by ten different Bifidobacteria” value (“utilization … by ten different Bifidobacteria” for short) is reported as “could utilize”, the numbers of bifidobacteria result is “significantly higher” and the “prebiotic effects on Bifidobacteria strains” value is “showed prebiotic effects on some Bifidobacteria strains”.
Consider lactodifucotetraose [LDFT], for which, in test [2], the “growth of E. coli” value is “no significant increase”; the “pH in the culture of E. coli” value is “no significant increase on its growth and decrease in pH”. For the same compound, in test [3], the “growth of C. perfringens” value is “no significant increase”; the “pH in the culture of C. perfringens” value is “no significant increase on its growth and decrease in pH”. Further, the “growth of the Bifidobacteria sp.” value in test [1] (48 h, sole carbon source (2'-FL 2 g/L, 3-FL 2 g/L, LDFT 1 g/L), vs control without substrate) was “significantly increase”. Also, the “pH in the culture of Bifidobacteria” value in test [1] (48 h, sole carbon source, vs control without substrate) is given as “decrease the pH”. Further, in test [1], the “utilization … by ten different Bifidobacteria” value is “could utilize” and the numbers of bifidobacteria entry is on record as “significantly higher”.
With `CC(=O)N[C@H]1[C@H]([C@H](O)[C@H](O)CO)O[C@@](OC[C@H]2O[C@@H](O[C@H]3[C@H](O)[C@@H](O)[C@H](O)O[C@@H]3CO)[C@H](O)[C@@H](O)[C@H]2O)(C(=O)O)C[C@@H]1O` [6′-SL, 6′-sialyllactose], in test [1], the “utilization … by ten different Bifidobacteria” value is listed as “could utilize”, the numbers of bifidobacteria entry is listed as “significantly higher” and the “prebiotic effects on Bifidobacteria strains” value was “showed prebiotic effects on some Bifidobacteria strains”.
